Experimental data as given in ChEMBL document CHEMBL6114952, “Synthesis and antitumor effects of novel betulinic acid derivatives bearing electrophilic moieties” (Bioorg Med Chem, 2025).
Activity calls are given as the source filed them. The rule behind the calls is not given here.

Tests used:
MCF7 [1] = test: Induction of cell cycle arrest in human MCF7 cells assessed as accumulation of cells at S phase at 0.5 uM incubated for 24 hrs by PI/RNase staining based flow cytometric analysis (reference value: 26.4 %); assay type: functional
MCF7 [2] = test: Induction of autophagy in human MCF7 cells incubated for 24 hrs by MDC probe based confocal microscopy analysis; assay type: functional, cell-based; conditions: dose 0.5-2 µM
MCF7 [3] = test: Induction of apoptosis in human MCF7 cells assessed as early apoptotic cells at 0.5 uM incubated for 24 hrs by Annexin V-FITC/PI double staining based flow cytometric analysis (reference value: 1.56 %); assay type: functional
MCF7 [4] = test: Induction of cell cycle arrest in human MCF7 cells assessed as accumulation of cells at G1 phase at 1 uM incubated for 24 hrs by PI/RNase staining based flow cytometric analysis (reference value: 52.7 %); assay type: functional
MCF7 [5] = test: Induction of apoptosis in human MCF7 cells assessed as early apoptotic cells at 2 uM incubated for 24 hrs by Annexin V-FITC/PI double staining based flow cytometric analysis (reference value: 1.56 %); assay type: functional
MCF7 [6] = test: Induction of apoptosis in human MCF7 cells assessed as necrotic cells at 1 uM incubated for 24 hrs by Annexin V-FITC/PI double staining based flow cytometric analysis (reference value: 3.44 %); assay type: functional
[7] = test system: Trastuzumab-resistant JIMT-1 cell; test: Inhibition of AKT phosphorylation in human Trastuzumab-resistant JIMT-1 cells at 1 uM by Western blot analysis; assay type: cell-based
JIMT-1 = test: Synergistic antiproliferative activity against human JIMT-1 cells assessed inhibition of cell growth at 0.25 to 1 uM by MTT assay; assay type: functional, cell-based; conditions: dose 0.25-1 µM
MCF7 [8] = test: Induction of apoptosis in human MCF7 cells assessed as viable cells at 0.5 uM incubated for 24 hrs by Annexin V-FITC/PI double staining based flow cytometric analysis (reference value: 83.2 %); assay type: functional; conditions: read-out: Activity
MCF7 [9] = test: Induction of apoptosis in human MCF7 cells assessed as late apoptotic cells at 0.5 uM incubated for 24 hrs by Annexin V-FITC/PI double staining based flow cytometric analysis (reference value: 11.8 %); assay type: functional
MCF7 [10] = test: Inhibition of AKT phosphorylation in human MCF7 cells incubated for 24 hrs by Western blot analysis; assay type: cell-based; conditions: dose 0.5-2 µM
[11] = biological target: Serine/threonine-protein kinase mTOR (Homo sapiens) (UniProt P42345); test: Inhibition of mTOR phosphorylation in human Trastuzumab-resistant JIMT-1 cells at 1 uM by Western blot analysis; assay type: cell-based; conditions: Trastuzumab-resistant JIMT-1 cell
[12] = Antiproliferative activity against human Trastuzumab-resistant JIMT-1 cells at 0.5 uM by MTT assay relative to control; assay type: functional, Trastuzumab-resistant JIMT-1 cell
MCF7 [13] = test: Antiproliferative activity against human MCF7 cells assessed as inhibition of cell proliferation incubated for 48 hrs by MTT assay; assay type: functional, cell-based; conditions: MCF7, 48 h
MCF7 [14] = test: Antitumor activity against human MCF7 cells xenografted in female BALB/c mouse assessed as tumor growth inhibition at 5 mg/kg, iv administered daily for 14 days relative to control; assay type: functional; conditions: MCF7, 336 h, time 14 day, read-out: TGI
[15] = Toxicity in female BALB/c mouse xenografted with human MCF7 cells assessed as body weight loss at 5 mg/kg, iv measured daily for 14 days; assay type: organism-based; conditions: in vivo, 336 h, time 14 day
MCF7 [16] = test: Induction of apoptosis in human MCF7 cells assessed as viable cells at 2 uM incubated for 24 hrs by Annexin V-FITC/PI double staining based flow cytometric analysis (reference value: 83.2 %); assay type: functional; conditions: read-out: Activity
MCF7 [17] = test: Induction of cell cycle arrest in human MCF7 cells assessed as accumulation of cells at S phase at 1 uM incubated for 24 hrs by PI/RNase staining based flow cytometric analysis (reference value: 26.4 %); assay type: functional
MCF7 [18] = test: Inhibition of cell migration in human MCF7 cells incubated for 12 to 24 hrs by wound healing assay; assay type: functional, cell-based; conditions: dose 1-4 µM, time 12-24 hrs
HeLa [19] = test: Antiproliferative activity against human HeLa cells assessed as inhibition of cell proliferation incubated for 48 hrs by MTT assay; assay type: functional, cell-based
MCF7 [20] = test: Induction of cell cycle arrest in human MCF7 cells assessed as accumulation of cells at G2/M phase at 2 uM incubated for 24 hrs by PI/RNase staining based flow cytometric analysis (reference value: 20.8 %); assay type: functional
MCF7 [21] = test: Induction of apoptosis in human MCF7 cells assessed as early apoptotic cells at 1 uM incubated for 24 hrs by Annexin V-FITC/PI double staining based flow cytometric analysis (reference value: 1.56 %); assay type: functional
MCF7 [22] = test: Induction of cell cycle arrest in human MCF7 cells assessed as accumulation of cells at S phase at 2 uM incubated for 24 hrs by PI/RNase staining based flow cytometric analysis (reference value: 26.4 %); assay type: functional
MCF7 [23] = test: Induction of apoptosis in human MCF7 cells assessed as viable cells at 1 uM incubated for 24 hrs by Annexin V-FITC/PI double staining based flow cytometric analysis (reference value: 83.2 %); assay type: functional; conditions: read-out: Activity
MCF7 [24] = test: Induction of cell cycle arrest in human MCF7 cells assessed as accumulation of cells at G2/M phase at 1 uM incubated for 24 hrs by PI/RNase staining based flow cytometric analysis (reference value: 20.8 %); assay type: functional
HeLa [25] = test: Inhibition of cell migration in human HeLa cells incubated for 12 to 24 hrs by wound healing assay; assay type: functional, cell-based; conditions: dose 1-4 µM, time 12-24 hrs
MCF7 [26] = test: Induction of apoptosis in human MCF7 cells assessed as necrotic cells at 0.5 uM incubated for 24 hrs by Annexin V-FITC/PI double staining based flow cytometric analysis (reference value: 3.44 %); assay type: functional
MCF7 [27] = test: Induction of apoptosis in human MCF7 cells assessed as late apoptotic cells at 2 uM incubated for 24 hrs by Annexin V-FITC/PI double staining based flow cytometric analysis (reference value: 11.8 %); assay type: functional
MCF7 [28] = test: Induction of ROS generation in human MCF7 cells assessed as increase in intracellular ROS level at 0.5 to 2 uM incubated for 24 hrs by DCFH-DA staining based microscopic analysis; assay type: functional, cell-based; conditions: dose 0.5-2 µM
MCF7 [29] = test: Induction of cell cycle arrest in human MCF7 cells assessed as accumulation of cells at G1 phase at 2 uM incubated for 24 hrs by PI/RNase staining based flow cytometric analysis (reference value: 52.7 %); assay type: functional
[30] = biological target: Serine/threonine-protein kinase mTOR (Homo sapiens) (UniProt P42345); test: Inhibition of mTOR phosphorylation in human MCF7 cells incubated for 24 hrs by Western blot analysis; assay type: cell-based; conditions: dose 0.5-2 µM
MCF7 [31] = test: Induction of apoptosis in human MCF7 cells assessed as late apoptotic cells at 1 uM incubated for 24 hrs by Annexin V-FITC/PI double staining based flow cytometric analysis (reference value: 11.8 %); assay type: functional
[32] = test system: Trastuzumab-resistant JIMT-1 cell; test: Inhibition of AKT phosphorylation in human Trastuzumab-resistant JIMT-1 cells at 1 uM cotreated with trastuzumab by Western blot analysis; assay type: cell-based
[33] = biological target: Serine/threonine-protein kinase mTOR (Homo sapiens) (UniProt P42345); test: Inhibition of mTOR phosphorylation in human Trastuzumab-resistant JIMT-1 cells at 1 uM cotreated with trastuzumab by Western blot analysis; assay type: cell-based; conditions: Trastuzumab-resistant JIMT-1 cell
MCF7 [34] = test: Inhibition of colony formation in human MCF7 cells assessed as decrease in colonies incubated for 10 days with replacement of medium for every 3 days by crystal violet staining based assay; assay type: functional, cell-based; conditions: dose 0.5-2 µM, time 10.0 day
MDA-MB-231 = test: Antiproliferative activity against human MDA-MB-231 cells assessed as inhibition of cell proliferation incubated for 48 hrs by MTT assay; assay type: functional, cell-based; conditions: MDA-MB-231, 48 h
[35] = Antiproliferative activity against human Trastuzumab-resistant JIMT-1 cells at 0.5 uM in presence of trastuzumab by MTT assay relative to control; assay type: functional, Trastuzumab-resistant JIMT-1 cell
MCF7 [36] = test: Induction of cell cycle arrest in human MCF7 cells assessed as accumulation of cells at G2/M phase at 0.5 uM incubated for 24 hrs by PI/RNase staining based flow cytometric analysis (reference value: 20.8 %); assay type: functional
MCF7 [37] = test: Induction of apoptosis in human MCF7 cells assessed as necrotic cells at 2 uM incubated for 24 hrs by Annexin V-FITC/PI double staining based flow cytometric analysis (reference value: 3.44 %); assay type: functional
MCF7 [38] = test: Induction of cell cycle arrest in human MCF7 cells assessed as accumulation of cells at G1 phase at 0.5 uM incubated for 24 hrs by PI/RNase staining based flow cytometric analysis (reference value: 52.7 %); assay type: functional

With `C=C(C)[C@@H]1CC[C@]2(C(=O)O)CC[C@]3(C)[C@H](CC[C@@H]4[C@@]5(C)CC[C@H](OC(=O)N6CCN(C(=O)CCl)CC6)C(C)(C)[C@@H]5CC[C@]43C)[C@@H]12` the Activity (MCF7 [1]) was 22%, the Activity (MCF7 [2]) was “Dose-dependent-effect” and the Activity (MCF7 [3]) was 2.47%. For the same compound, the Activity (MCF7 [4]) was 56.4%, the Activity (MCF7 [5]) was 2.72% and the Activity (MCF7 [6]) was 3.93%. The inhibition [7] was “Active”, the Activity (JIMT-1) was “Active” and the viability at 0.5 µM (MCF7 [8]) was 79.7%. For the same compound, the Activity (MCF7 [9]) was 15.3%, the inhibition (MCF7 [10]) was “Dose-dependent-effect” and the inhibition [11] was “Active”. The Activity [12] was 19.9%, the IC50 (MCF7 [13]) was 1090 nM and the inhibition in vivo at 5 mg/kg (MCF7 [14]) was 36%. For the same compound, the Activity [15] was “Non-toxic”, the viability at 2 µM (MCF7 [16]) was 72.3% and the Activity (MCF7 [17]) was 19.1%. The inhibition (MCF7 [18]) was “Dose-dependent-effect”, the IC50 (HeLa [19]) was 1110 nM and the Activity (MCF7 [20]) was 27.2%. For the same compound, the Activity (MCF7 [21]) was 1.99%, the Activity (MCF7 [22]) was 19.8% and the viability at 1 µM (MCF7 [23]) was 74.9%. The Activity (MCF7 [24]) was 24.3%, the inhibition (HeLa [25]) was “Dose-dependent-effect” and the Activity (MCF7 [26]) was 2.49%. The Activity (MCF7 [27]) was 22%, the Activity (MCF7 [28]) was “Active” and the Activity (MCF7 [29]) was 53.4%. The inhibition [30] was “Dose-dependent-effect”, the Activity (MCF7 [31]) was 19.2% and the inhibition [32] was “Active”. The inhibition [33] was “Active”, the inhibition (MCF7 [34]) was “Dose-dependent-effect” and the IC50 (MDA-MB-231) was 1660 nM. It also gave an Activity [35] of 59%, an Activity (MCF7 [36]) of 23.4% and an Activity (MCF7 [37]) of 2.93%. The Activity (MCF7 [38]) was 54.7%.
